Experimental data published in PubChem BioAssay AID1645861 (Buhrlage Lab, Dana-Farber Cancer Institute and Novartis …, 2021).
Activity calls are given as the source filed them.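 The calls were made as follows: active = compounds whose peak USP7 inhibition across the dose series reached 30% or more; inactive = the rest.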

biological target: Ubiquitin carboxyl-terminal hydrolase 7 (Homo sapiens) (UniProt Q93009); test: Ubiquitin-specific protease 7 DUB inhibitors, concentration-effect, biochemical, validation of primary hits (AID 1645861); conditions: purified USP7, Ub-rhodamine cleavage fluorescence, 60 min
Sequence (Q93009 whole entry, looked up): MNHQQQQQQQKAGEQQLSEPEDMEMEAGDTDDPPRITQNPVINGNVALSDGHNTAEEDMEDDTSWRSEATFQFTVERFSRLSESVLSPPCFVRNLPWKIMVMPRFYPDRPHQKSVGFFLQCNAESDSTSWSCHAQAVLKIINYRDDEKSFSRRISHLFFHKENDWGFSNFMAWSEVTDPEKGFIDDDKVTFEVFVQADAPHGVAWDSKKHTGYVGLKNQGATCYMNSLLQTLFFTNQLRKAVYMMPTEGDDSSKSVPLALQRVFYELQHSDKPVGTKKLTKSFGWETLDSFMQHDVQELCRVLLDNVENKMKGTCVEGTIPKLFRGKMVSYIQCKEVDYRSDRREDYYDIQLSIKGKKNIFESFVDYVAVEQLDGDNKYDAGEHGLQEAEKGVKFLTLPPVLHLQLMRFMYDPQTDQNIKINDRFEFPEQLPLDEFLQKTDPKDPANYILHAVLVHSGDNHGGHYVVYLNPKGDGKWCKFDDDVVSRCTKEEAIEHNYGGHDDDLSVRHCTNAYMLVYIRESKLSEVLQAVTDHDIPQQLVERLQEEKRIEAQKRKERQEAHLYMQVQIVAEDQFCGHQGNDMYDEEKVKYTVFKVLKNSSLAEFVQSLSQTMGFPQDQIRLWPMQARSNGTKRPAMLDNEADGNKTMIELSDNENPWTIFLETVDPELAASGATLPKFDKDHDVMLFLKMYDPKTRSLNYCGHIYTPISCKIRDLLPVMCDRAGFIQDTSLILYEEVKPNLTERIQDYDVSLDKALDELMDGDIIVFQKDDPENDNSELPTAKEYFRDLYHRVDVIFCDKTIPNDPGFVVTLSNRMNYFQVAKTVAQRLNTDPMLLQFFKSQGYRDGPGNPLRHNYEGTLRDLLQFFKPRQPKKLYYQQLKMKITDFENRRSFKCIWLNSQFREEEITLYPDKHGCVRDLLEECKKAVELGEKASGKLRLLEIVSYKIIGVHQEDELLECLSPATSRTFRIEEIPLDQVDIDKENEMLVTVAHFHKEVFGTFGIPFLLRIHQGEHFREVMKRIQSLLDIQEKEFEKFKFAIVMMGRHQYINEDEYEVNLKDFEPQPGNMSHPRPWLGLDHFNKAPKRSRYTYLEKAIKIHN

SMILES | IC50
CC(C)=CCCC1(C)C=Cc2c(O)c3c(c(CC=C(C)C)c2O1)OC12C(=CC4CC1C(C)(C)OC2(C/C=C(/C)C(=O)O)C4=O)C3=O (configuration not stated) | 17.4 µM
COC(=O)c1ccc(N2CCN(C(C)=O)CC2)c(NC(=O)COc2ccc([N+](=O)[O-])cc2)c1 | > 50 µM (inactive)
CC(C)(C)C(=O)[C@@H]1[C@@H](C(=O)c2ccc3c(c2)OCO3)[C@@]2(C(=O)Nc3ccccc32)[C@H]2c3ccccc3C=CN12 | > 50 µM (inactive)
O=C(NCC1(c2ccccc2)CCC1)c1nc2n(n1)-c1ccccc1S(=O)(=O)N2 | > 50 µM (inactive)
O=C1Cc2ccccc2C(=O)N1c1ccc2c(c1)OCO2 | > 50 µM (inactive)
NS(=O)(=O)c1ccc(CNC(=O)c2ccc(Cl)c(S(=O)(=O)Nc3cc(Cl)ccc3Cl)c2)cc1 | > 50 µM (inactive)
Cn1cc(NC(=O)Nc2cccc(C(F)(F)F)c2)c2ccccc2c1=O | > 50 µM (inactive)
O=C(Nc1cccc([N+](=O)[O-])c1)Nc1ccc2snnc2c1 | 17.7 µM
Cc1ccc(NC(=O)Cn2c(=O)n(CC(=O)NCCc3ccccc3)c(=O)c3sccc32)cc1C | > 50 µM (inactive)
COc1ccc(NC(=O)Cn2c(=O)n(CCC(=O)NCc3ccccc3)c(=O)c3sccc32)cc1Cl | > 50 µM (inactive)
O=C(CCc1ccc(S(=O)(=O)N2CCOCC2)cc1)OCC(=O)c1ccc(-c2ccccc2)cc1 | > 50 µM (inactive)
O=C(OC1CSc2nc3ccccc3n2C1)c1ccc([N+](=O)[O-])o1 (configuration not stated) | > 50 µM (inactive)
CCOc1ccc(NC(=O)Cn2c(=O)n(CCC(=O)NCc3ccco3)c(=O)c3ccccc32)cc1 | > 50 µM (inactive)
O=C(Cn1c(-c2ccccc2)ncc(C(=O)NC2CC2)c1=O)Nc1ccccc1 | > 50 µM (inactive)
COc1ccc(OC)c(NC(=O)Cn2c(=O)n(C3CCCCC3)c(=O)c3ccccc32)c1 | > 50 µM (inactive)
COc1cccc(CNC(=O)c2nnn(CC(=O)Nc3cc(C)ccc3C)c2N)c1 | > 50 µM (inactive)
Cc1ccc2[nH]c3c(=O)n(Cc4ccc(N(C)C)cc4)cnc3c2c1 | > 50 µM (inactive)
COc1ccc(NC(=O)Cn2c(=O)n(Cc3ccco3)c(=O)c3ccc(C(=O)NC4CCCC4)cc32)cc1 | > 50 µM (inactive)
COc1cc(Cl)c(NC(=O)C2Cc3ccccc3N2C(=O)c2ccccc2)c(OC)c1 (configuration not stated) | > 50 µM (inactive)
CSc1ccc(CNC(=O)Cn2nc(C)c3c(C)n(-c4ccccc4)nc3c2=O)cc1 | 45.6 µM
Oc1cccc2c(-c3ccc(O)c4c(O)cccc34)ccc(O)c12 | > 50 µM (inactive)

SMILES | IC50
O=c1[nH]c2ccc(S(=O)(=O)Nc3ccc(O)c4ccccc34)cc2[nH]1 | > 50 µM (inactive)
COc1ccc(Cl)cc1NC(=O)c1nc(-c2cn(-c3ccccc3)nn2)no1 | > 50 µM (inactive)
CC(C)=CCC/C(C)=C/COc1ccc(/C=C2\C(=O)N(O)[C@@H](C)C(=O)N2O)cc1 | > 50 µM (inactive)
Cc1cccc(NC(=O)CSc2nc3c(cc2C#N)C(=O)CCC3)c1 | > 50 µM (inactive)
COc1cc(O)cc2c1C(=O)OC(C)CCCCCCC2 (configuration not stated) | > 50 µM (inactive)
CC1=CC(=O)C(C2=C(O)C(=O)C(C)=CC2=O)=C(O)C1=O | > 50 µM (inactive)
O=C(CCCCn1c(=O)c2ccccc2n(CC(=O)Nc2ccc3c(c2)OCCO3)c1=O)NCc1ccco1 | > 50 µM (inactive)
CCOC(=O)N1CCN(C(=O)c2ccc(NCc3ccc(F)cc3)c(S(=O)(=O)Nc3cccc(C(F)(F)F)c3)c2)CC1 | > 50 µM (inactive)
COc1ccc(CCC(=O)Nc2nnc(C3CC(=O)N(c4ccc(C)cc4)C3)s2)cc1 (configuration not stated) | > 50 µM (inactive)
Cc1nc(N2CCCC2)ncc1-c1cc(=O)[nH]c(Nc2ccc(Cl)cc2Cl)n1 | > 50 µM (inactive)
CCc1nc(SCC(=O)Nc2ccc(Cl)c(Cl)c2)c2oc3ccccc3c2n1 | > 50 µM (inactive)
Cc1sc(NC(=O)Cn2nnc3ccccc32)nc1-c1ccc2c(c1)CCN2C(=O)c1ccccc1F | > 50 µM (inactive)
CCC1OC(O)(C(C)C(O)C(C)C2OC(=O)/C(C)=C/C(C)=CC(C)C(O)C(C)C/C(C)=C/C=C/C2OC)CC(OC(=O)/C=C/C(=O)NC2=C(O)CCC2=O)C1C (configuration not stated) | 23.2 µM
Cc1ccc(NC(=O)c2ccc3nn(CC(=O)Nc4ccc(F)cc4F)c(=O)n3c2)cc1 | > 50 µM (inactive)
Cc1ccnc(NS(=O)(=O)c2ccc(NC(=O)c3ccc(S(=O)(=O)N(C)Cc4ccccc4)cc3)cc2)n1 | > 50 µM (inactive)
COc1cc(C)cc2c1C(=O)c1c(cc(O)c(Cl)c1O)C2=O | 12.9 µM
CCCCN1Cc2sc(NC(=O)Nc3ccccc3C)nc2C1=O | > 50 µM (inactive)
Cc1ccc(C(=O)NC(C)c2ccccc2)cc1NC(=O)c1nsc2ccccc12 (configuration not stated) | > 50 µM (inactive)
CCOC(=O)c1ccc(Oc2sccc2[N+](=O)[O-])cc1 | 10.7 µM
Cc1cccc(NC(=O)Nc2nnc(CC(=O)NCc3ccccc3)s2)c1 | > 50 µM (inactive)
CC(NC(=O)c1nc2n(n1)-c1ccccc1S(=O)(=O)N2)c1cc2ccccc2o1 (configuration not stated) | > 50 µM (inactive)

SMILES | IC50
COc1ccc(Nc2nc3c(S(=O)(=O)c4ccc(C)cc4)nnn3c3ccsc23)c(OC)c1 | > 50 µM (inactive)
Cc1nc(-c2ccc(Cl)cc2)oc1C(=O)Nc1ccc(Cl)cc1 | > 50 µM (inactive)
O=C(COc1ccccc1-c1nnc(-c2ccccc2)o1)NCCc1ccco1 | > 50 µM (inactive)
Cc1cc(NS(=O)(=O)c2ccc(NC(=O)c3ccc(N4CCCC4)c([N+](=O)[O-])c3)cc2)no1 | > 50 µM (inactive)
COc1ccc(NS(=O)(=O)c2cc(NC(=O)CC(=O)c3ccc([N+](=O)[O-])cc3)ccc2Cl)cc1 | > 50 µM (inactive)
COc1ccc(OC)c(-c2cn3ccn(-c4ccc(F)c(Cl)c4)c(=O)c3n2)c1 | > 50 µM (inactive)
Cc1ccc(NC(=O)CSc2nnc(-c3n[nH]c4c3CCC4)n2N)cc1C | > 50 µM (inactive)
COC(=O)c1ccc2c(=O)n(CCCCCC(=O)NCCc3ccc(S(N)(=O)=O)cc3)c(=O)[nH]c2c1 | > 50 µM (inactive)
Cn1c(=O)[nH]c2nncnc2c1=O | > 50 µM (inactive)
Cc1cc(O)c2c3c(c(O)cc2c1)C(=O)c1c(O)cccc1C3=O | 19.5 µM
NS(=O)(=O)c1cccc(NC(=O)/C=C/c2cn(-c3ccccc3)nc2-c2cccc([N+](=O)[O-])c2)c1 | > 50 µM (inactive)
O=C(Cn1c(=O)n(Cc2ccc3c(c2)OCO3)c(=O)c2ccccc21)NCc1ccco1 | > 50 µM (inactive)
COc1cc2cc3c(c(O)c2c(O)c1-c1c(OC)cc2cc4c(c(O)c2c1O)C(=O)OC1CC(C)OC41)C(=O)OC1CC(C)OC31 (configuration not stated) | > 50 µM (inactive)
O=C1c2ccccc2C(=O)c2c(O)c(O)cc(O)c21 | 45.6 µM
CCOc1ccc(NC(=O)Cn2c(=O)n(CCCCCC(=O)NCc3ccc(F)cc3)c(=O)c3sccc32)cc1 | > 50 µM (inactive)
CC(C)c1ccc(NC(=O)COC(=O)c2ccc(NS(=O)(=O)c3ccc4c(c3)OCCO4)cc2)cc1 | > 50 µM (inactive)
Cc1cc(C(=O)NC2(O)C(=O)c3ccccc3C2=O)n(C)n1 | > 50 µM (inactive)
COc1cc2c(=O)n(Cc3ccccc3)c(=O)n(CC(=O)N3CCCc4ccccc43)c2cc1OC | > 50 µM (inactive)
COc1ccc(NC(=O)Cn2cc(C(=O)c3ccc(C)cc3)c(=O)c3ccccc32)cc1 | > 50 µM (inactive)
COc1ccc(-c2cc(-c3ccccc3)nc(SCC(N)=O)c2C#N)cc1OC | > 50 µM (inactive)
